Measured values taken from patent US8163509B2, “Biological markers predictive of anti-cancer response to insulin-like growth factor-1 receptor kinase inhibitors” (The Regents of the University of Colorado, A Body Corporate, priority 2008, dated 2012).

Legend:
p42/44 MAPK = assay: Immunoblotting, pathway activation; type: cell-based, human; conditions: PQIP 0.4 μmol/L 3 h pre-exposure, IGF-2 100 ng/mL 10 minutes
Experimental: (§1) Immunoprecipitation and Immunoblotting: HT29 and HCT116 CRC cell lines were seeded into 6-well plates, allowed to attach for 24 hours and serum starved overnight. Cells were then exposed to IGF-2 (100 ng/mL) for 10 minutes with or without a 3 hour PQIP (0.4 μmol/L) pretreatment. After treatment cells were rinsed with PBS and scraped into RIPA lysis buffer containing protease inhibitors, EDTA, NaF, and sodium orthovanadate. Total protein was quantified using the BioRad Dc Protein Assay (BioRad, Hercules, Calif.). Total protein (30 μg) was electrophoresed on a 4-20% gradient SDS-polyacrylimide gel then electrophoretically transferred to Immobilon-P (Millipore, Bedford, Mass.). Membranes were blocked for 1 hour in 5% non-fat dry milk (BioRad, Hercules, Calif.) in TBS-Tween (0.1%) prior to overnight incubation at 4° C. with the appropriate primary antibody. Blots were then washed 3×20 minutes in TBS-Tween (0.1%) and were incubated with the appropriate secondary anti-rabbit or anti-mouse IgG1 horseradish peroxidase-linked antibody at 1:20,000 (Jackson ImmunoResearch, West Grove, Pa.) for one hour at room temperature. After three additional washes, the blots were developed by Immobilon Western Chemiluminescent HRP substrate (Millipore, Billerica, Mass.). Anti-IGF1Rβ rabbit polyclonal (Cell Signaling Technology, Danvers, Mass.) was used for immunoprecipitation at a 1:50 dilution. The following primary antibodies were used for immunoblotting (all from Cell Signaling Technology, Danvers, Mass.). Anti-phosphorylated Akt (T308) rabbit polyclonal, anti-phosphorylated S6 ribosomal protein (S235/236) rabbit mAb, anti-phosphorylated p44/42 MAPK (Thr202/Tyr204) rabbit mAb, and anti-phosphorylated tyrosine mouse mAb at 1:1.000. Anti-Akt (pan) rabbit mAb, anti-S6 ribosomal protein rabbit mAb, anti-p44/42 MAP Kinase rabbit mAb, anti Pan-Actin rabbit polyclonal, anti-IGF1Rβ rabbit polyclonal, anti-PARP rabbit polyclonal, and anti-cyclin D1 rabbit polyclonal at 1:5000.
(§2) Effect of PQIP on receptor phosphorylation and pathway activation: Since PQIP is expected to inhibit autophosphorylation of IGF1R, we tested its ability to inhibit IGF-2 mediated activation of the receptor and pathway. One PQIP sensitive and one PQIP resistant CRC cell line were chosen for immunoprecipitation and immunoblotting analysis. Following 18 h serum starvation, HT29 and HCT116 CRC cell lines were stimulated or unstimulated for 10 minutes with 100 ng/mL of IGF-2 with or without a 3 h pre-exposure to PQIP (0.4 μmol/L).

S6 ribosomal protein = assay: Immunoblotting, pathway activation; type: cell-based, human; conditions: PQIP 0.4 μmol/L 3 h, with or without IGF-2 stimulation
Experimental: as §1, §2

Akt = assay: Immunoblotting, pathway activation; type: cell-based, human; conditions: PQIP 0.4 μmol/L 3 h, with or without IGF-2 stimulation
Experimental: as §1, §2

HCT116 CRC cell line = assay: Gene expression analysis post PQIP exposure (gene array); type: cell-based, human; conditions: 400 nM PQIP, 72 hours
Experimental: (§3) Microarray Analysis: Cells were plated at 2×106 in 6-well plates 24 h prior to harvest. After 24 hours cells were rinsed twice with PBS, and RNA was prepared using a RNeasy Plus mini kit (Qiagen, Valencia, Calif.). RNA stabilization, isolation, and microarray sample labeling were carried out using standard methods for reverse transcription and one round of in vitro transcription. HG-U133 set microarrays were hybridized with 10 μg of cRNA and processed according to the protocols of the manufacturer (Affymetrix). Hybridization signals and detection calls were generated in BioConductor, using the germa and affy software packages. Microarray data was analyzed using BRB ArrayTools v3.2 developed by Dr. Richard Simon and Amy Peng Lam.
(§4) Gene Expression Analysis Post PQIP Exposure: In order to identify genes that are modulated following exposure to PQIP, 5 sensitive and 5 resistant CRC cell lines were treated with 400 nM PQIP for 72 hours, total RNA was purified, and gene array analysis was performed as described previously. The gene expression profiles following PQIP exposure were compared to the respective untreated profiles. To characterize changes in gene expression profile, one PQIP resistant (HCT116) and one PQIP sensitive (HT29) tumor cell type was examined, and caldesmon, metallothioneins, ALDH1A1, and MAP2K6 expression levels were analyzed.

HT29 CRC cell line = assay: as above; type: cell-based, human; conditions: 400 nM PQIP, 72 hours
Experimental: as §3, §4

IGF1R [1] = target: T1, IGF1R (Homo sapiens, UniProt P08069); assay: Meso Scale Discovery (MSD) assay of phosphorylated IGF1R; type: cell-based; conditions: HT29 and HCT116, 72 h
T1 construct: endogenous in cells; host or cells: HT29 and HCT116 CRC cell lines
Experimental: Detection of IGF1R using Meso Scale Discovery assays (MSD): HT29 and HCT116 CRC cell lines were seeded into 6-well plates, allowed to attach for 24 hours and exposed to PQIP and chemotherapy (SN38, or Oxaliplatin) alone or in combination for 72 h. Following exposure, cells were rinsed with PBS and scraped into RIPA lysis buffer containing protease inhibitors, EDTA, NaF, and sodium orthovanadate. Total protein was quantified using the BioRad Dc Protein Assay (BioRad, Hercules, Calif.). Fifty micrograms of protein in 25 μL was added per well for MSD detection of phosphorylated IGF-1R according to manufacturer's instructions (Meso Scale Discovery, Gaithersburg, Md.).
Cells were exposed to PQIP (0.4 μmol/L) and chemotherapy (SN38 0.004 μmol/L, or Oxaliplatin 1.0 μmol/L) alone or in combination for 72 h. Protein was extracted and analyzed for phospho/total IGF1R levels using a Meso Scale Discovery (MSD; Gaithersburg, Md. 20877) assay.

IGF1R [2] = target: T1, IGF1R; assay: Immunoprecipitation and immunoblotting, IGF-2 induced receptor autophosphorylation; type: cell-based; conditions: PQIP 0.4 μmol/L 3 h pre-exposure, IGF-2 100 ng/mL 10 minutes
From the text: Total protein was quantified using the BioRad Dc Protein Assay (BioRad, Hercules, Calif.).

T1 sequence (P08069 31-1367): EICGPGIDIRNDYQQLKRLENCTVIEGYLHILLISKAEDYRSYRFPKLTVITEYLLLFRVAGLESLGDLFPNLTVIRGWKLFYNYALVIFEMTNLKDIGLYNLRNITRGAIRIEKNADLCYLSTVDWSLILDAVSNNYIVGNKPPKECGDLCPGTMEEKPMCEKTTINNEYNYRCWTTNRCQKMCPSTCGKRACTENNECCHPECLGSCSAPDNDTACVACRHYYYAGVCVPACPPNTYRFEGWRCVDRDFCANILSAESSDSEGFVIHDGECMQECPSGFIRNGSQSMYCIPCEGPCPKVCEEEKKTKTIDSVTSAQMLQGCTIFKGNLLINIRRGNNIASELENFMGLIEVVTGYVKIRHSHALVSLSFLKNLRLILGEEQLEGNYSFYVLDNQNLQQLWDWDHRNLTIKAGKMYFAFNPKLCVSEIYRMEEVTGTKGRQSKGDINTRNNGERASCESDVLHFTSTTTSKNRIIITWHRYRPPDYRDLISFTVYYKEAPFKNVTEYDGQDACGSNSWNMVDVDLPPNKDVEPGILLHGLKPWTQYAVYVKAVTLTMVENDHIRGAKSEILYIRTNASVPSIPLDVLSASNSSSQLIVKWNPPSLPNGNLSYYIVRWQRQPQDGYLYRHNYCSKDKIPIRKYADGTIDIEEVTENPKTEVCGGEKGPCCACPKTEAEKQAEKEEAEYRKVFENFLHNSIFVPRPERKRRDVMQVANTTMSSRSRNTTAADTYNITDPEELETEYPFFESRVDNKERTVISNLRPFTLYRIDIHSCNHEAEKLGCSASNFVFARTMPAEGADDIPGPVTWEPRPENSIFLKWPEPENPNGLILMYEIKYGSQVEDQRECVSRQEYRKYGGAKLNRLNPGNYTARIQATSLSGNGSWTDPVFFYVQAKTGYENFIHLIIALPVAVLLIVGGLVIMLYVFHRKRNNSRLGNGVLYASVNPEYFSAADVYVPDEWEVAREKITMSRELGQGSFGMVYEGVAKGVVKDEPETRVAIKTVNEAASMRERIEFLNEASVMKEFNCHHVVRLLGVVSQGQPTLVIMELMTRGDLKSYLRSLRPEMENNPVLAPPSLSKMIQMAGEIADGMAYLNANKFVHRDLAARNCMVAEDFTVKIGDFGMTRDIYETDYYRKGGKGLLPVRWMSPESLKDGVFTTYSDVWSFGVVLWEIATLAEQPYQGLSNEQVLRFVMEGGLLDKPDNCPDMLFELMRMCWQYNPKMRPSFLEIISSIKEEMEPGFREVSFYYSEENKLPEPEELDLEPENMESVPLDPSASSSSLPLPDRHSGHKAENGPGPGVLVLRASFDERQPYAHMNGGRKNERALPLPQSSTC

CN1CCN([C@H]2C[C@@H](c3nc(-c4ccc5ccc(-c6ccccc6)nc5c4)c4c(N)nccn43)C2)CC1 [PQIP, cis-3-[3-(4-Methyl-piperazin-1-yl)-cyclobutyl]1-(2-phenyl-quinolin-7-yl)-imidazo[1,5-a]pyrazin-8-ylamine]
IGF-2 induced phosphorylation of p42/44 MAPK (p42/44 MAPK; HCT116): not in resistant HCT116 | IGF-2 induced phosphorylation of p42/44 MAPK (p42/44 MAPK; HT29): inhibited | phosphorylation of S6 ribosomal protein (S6 ribosomal protein; HCT116): inhibits | phosphorylation of S6 ribosomal protein (S6 ribosomal protein; HT29): inhibits | phosphorylation of Akt (Akt; HCT116): inhibits | phosphorylation of Akt (Akt; HT29): inhibits | Fold change of post exposure PQIP to untreated, ALDH1A1 expression (HCT116 CRC cell line): 2.3 fold | Fold change of post exposure PQIP to untreated, CALD1 expression (HCT116 CRC cell line): 1.9 fold | Fold change of post exposure PQIP to untreated, MAP2K6 expression (HCT116 CRC cell line): 0.7 fold | Fold change of post exposure PQIP to untreated, MT1E expression (HCT116 CRC cell line): 1.2 fold | Fold change of post exposure PQIP to untreated, MT1F expression (HCT116 CRC cell line): 1.6 fold | Fold change of post exposure PQIP to untreated, MT1G expression (HCT116 CRC cell line): 1.1 fold | Fold change of post exposure PQIP to untreated, MT1H expression (HCT116 CRC cell line): 1.8 fold | Fold change of post exposure PQIP to untreated, MT1M expression (HCT116 CRC cell line): 1.5 fold | Fold change of post exposure PQIP to untreated, MT1X expression (HCT116 CRC cell line): 2.0 fold | Fold change of post exposure PQIP to untreated, MT2A expression (HCT116 CRC cell line): 1.0 fold | Fold change of post exposure PQIP to untreated, ALDH1A1 expression (HT29 CRC cell line): 0.56 fold | Fold change of post exposure PQIP to untreated, CALD1 expression (HT29 CRC cell line): 1.5 fold | Fold change of post exposure PQIP to untreated, MAP2K6 expression (HT29 CRC cell line): 0.87 fold | Fold change of post exposure PQIP to untreated, MT1E expression (HT29 CRC cell line): 12.5 fold | Fold change of post exposure PQIP to untreated, MT1F expression (HT29 CRC cell line): 10.8 fold | Fold change of post exposure PQIP to untreated, MT1G expression (HT29 CRC cell line): 4.5 fold | Fold change of post exposure PQIP to untreated, MT1H expression (HT29 CRC cell line): 11.0 fold | Fold change of post exposure PQIP to untreated, MT1M expression (HT29 CRC cell line): 15.2 fold | Fold change of post exposure PQIP to untreated, MT1X expression (HT29 CRC cell line): 16.0 fold | Fold change of post exposure PQIP to untreated, MT2A expression (HT29 CRC cell line): 8.1 fold | effect on phosphorylated IGF1R, PQIP in combination with SN38 or Oxaliplatin (IGF1R [1]; PQIP 0.4 μmol/L plus SN38 0.004 μmol/L or Oxaliplatin 1.0 μmol/L): inhibited | effect on phosphorylated IGF1R, agent alone (IGF1R [1]; PQIP 0.4 μmol/L, SN38 0.004 μmol/L, Oxaliplatin 1.0 μmol/L): inhibited | IGF-2 induced tyrosine autophosphorylation of IGF1R (IGF1R [2]; HCT116): almost fully inhibits | IGF-2 induced tyrosine autophosphorylation of IGF1R (IGF1R [2]; HT29): almost fully inhibits
